Counter-ions that a name gives are not always drawn. Like-named read-outs stand apart in the source and are kept apart here.
Columns and labels:
[1] = Enzyme stability in human liver S9 fractions; type: in vitro ADME; details: 0.5 mg/mL pooled human liver S9 fractions; 10 μM compound; 37° C.; pH 7.4; read-out: Stability in liver S9 fractions, Clint
In short: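 Compound at 10 μM was incubated at 37 °C with 0.5 mg/mL pooled human liver S9, 2 mM β-NAD and 4 mM MgCl2 in 0.1 M sodium phosphate, pH 7.4, then quenched with acetonitrile and analysed chromatographically. T½ and CLint were derived from the slope of log peak area versus time.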

WT EGFR (Wild-Type EGFR) = target: T1, WT EGFR (Wild-Type EGFR) (Homo sapiens, UniProt P00533); assay: Inhibition of WT EGFR kinase activity (ADP-Glo); type: biochemical
T1 construct: purchased SignalChem
In short: (§1)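 Recombinant WT or double-mutant EGFR was incubated with a solution of 0.5 mg/mL peptide substrate and 50 μM ATP for 180 minutes at 37° C. Kinase activity was detected by ADP-Glo luminescence. IC50 values came from a four-parameter logistic fit.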

[2] = target: T2, DM EGFR (DoubleMutantEGFR, L828R/T790M) (Homo sapiens, UniProt P00533, L858R/T790M); assay: Inhibition of DM EGFR kinase activity (ADP-Glo); type: biochemical; details: for IC50: inhibition of kinase activity, EGFR DM (L828R/T790M); for SI, IC50(WT)/IC50(DM): selectivity index, kinase EGFR WT vs EGFR DM
T2 construct: purchased SignalChem
In short: as §1

[3] = system: A549 (lung adenocarcinoma, WT); assay: Antiproliferative activity on A549 cells (Alamar Blue); type: cell-based; details: Homo sapiens, antiproliferative test
In short: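 Cells seeded at 5*10^3/well in RPMI-1640 with 2% FBS, attached 16-18 h at 37° C, then exposed to compounds (≤1% DMSO) for 72 h. Alamar Blue added for 3-5 h; fluorescence read at 540/590 nm. IC50 from four-parameter logistic fit.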

[4] = system: H1975 (lung adenocarcinoma, DM, L828R/T790M); assay: Antiproliferative activity on H1975 cells (Alamar Blue); type: cell-based; details: for IC50: Homo sapiens, NCI-H1975, H1975 cells; for SI IC50(A549)/IC50(DM): selectivity index, A549 vs H1975 cells
In short: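 H1975 cells (15*10^3/well) attached 16-18 h in RPMI-1640 with 2% FBS, then exposed to compounds (≤1% DMSO final) for 72 h at 37 °C. Viability by Alamar Blue fluorescence (Ex 540/Em 590 nm) after 3-5 h; IC50 from four-parameter logistic fit.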

[5] = General cytotoxicity on HepG2 cells; type: cell-based; details: human; general cytotoxicity, HepG2 cells, 72 hours, average of several tests
In short: (§2)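 HepG2 cells seeded at 2*10^4 cells per well and compounds added in DMEM with 2% FBS for 72 h at 37 °C. Viability read with Alamar Blue and CC50 derived as for IC50. Therapeutic index taken as HepG2 CC50 over H1975 IC50.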

HepG2 cells = assay: General cytotoxicity on HepG2 cells; type: cell-based; details: therapeutic index, CC50 HepG2 / IC50 H1975
In short: as §2

[6] = average values obtained in several tests, Table 16, read-out: H1975 (DM) IC50
[7] = antiproliferative test, Table 15, read-out: IC50 H1975 (DM)

C=CC(=O)Nc1cc(Nc2cc(C(=O)c3ccc(N4CCN(C)CC4)cc3)ccn2)c(OC)cc1N(C)CCN(C)C [EGFR_3365_55, N-(2-((2-(dimethylamino)ethyl)(methyl)amino)-4-methoxy-5-((4-(4-(4-methylpiperazin-1-yl)benzoyl)pyridin-2-yl)amino)phenyl)acrylamide]
Intrinsic clearance in human liver S9 fractions at 10 µM [1]: 5 µL/min/mg
IC50 (WT EGFR (Wild-Type EGFR)): 0.0766 µM
IC50 [2]: 0.0254 µM
SI, IC50(WT)/IC50(DM) [2]: 3.02
IC50 [3]: 11.6 µM
IC50 [4, 6]: 0.211 µM
IC50 [4, 7]: 0.211 µM
SI IC50(A549)/IC50(DM) [4]: 55
CC50 at 72 h [5]: 13.3 µM
TI, CC50/IC50 (HepG2 cells): 63

C=CC(=O)Nc1cc(Nc2cc(C(=O)c3ccc(N4CCCC4)cc3)ccn2)c(OC)cc1N(C)CCN(C)C [EGFR_3365_56, N-(2-((2-(dimethylamino)ethyl)(methyl)amino)-4-methoxy-5-((4-(4-(pyrrolidin-1-yl)benzoyl)pyridin-2-yl)amino)phenyl)acrylamide]
Intrinsic clearance in human liver S9 fractions at 10 µM [1]: 9.1 µL/min/mg
IC50 (WT EGFR (Wild-Type EGFR)): 0.121 µM
IC50 [2]: 0.0063 µM
SI, IC50(WT)/IC50(DM) [2]: 19.14
IC50 [3]: 4.54 µM
IC50 [4, 6]: 0.0292 µM
IC50 [4, 7]: 0.0292 µM
SI IC50(A549)/IC50(DM) [4]: 156
CC50 at 72 h [5]: 9.51 µM
TI, CC50/IC50 (HepG2 cells): 325

C=CC(=O)Nc1cc(Nc2nccc(C(=O)c3ccc(N4CCC4)cc3)n2)c(OC)cc1N(C)CCN(C)C [EGFR_3365_58, N-(5-((4-(4-(azetidin-1-yl)benzoyl)pyrimidin-2-yl)amino)-2-((2-(dimethylamino)ethyl)(methyl)amino)-4-methoxyphenyl)acrylamide]
Intrinsic clearance in human liver S9 fractions at 10 µM [1]: 17.7 µL/min/mg
IC50 (WT EGFR (Wild-Type EGFR)): 0.0397 µM
IC50 [2]: 0.00236 µM
SI, IC50(WT)/IC50(DM) [2]: 16.81
IC50 [3]: > 10 µM
IC50 [4, 6]: 0.0081 µM
IC50 [4, 7]: 0.0105 µM
SI IC50(A549)/IC50(DM) [4]: >1235
CC50 at 72 h [5]: 44.4 µM
TI, CC50/IC50 (HepG2 cells): 4241

C=CC(=O)Nc1cc(Nc2nccc(C(=O)c3ccc(N4CC(OC)C4)cc3)n2)c(OC)cc1N(C)CCN(C)C [EGFR_3365_61, N-(2-((2-(dimethylamino)ethyl)(methyl)amino)-4-methoxy-5-((4-(4-(3-methoxyazetidin-1-yl)benzoyl)pyrimidin-2-yl)amino)phenyl)acrylamide]
Intrinsic clearance in human liver S9 fractions at 10 µM [1]: 12.8 µL/min/mg
IC50 (WT EGFR (Wild-Type EGFR)): 0.0531 µM
IC50 [2]: 0.00276 µM
SI, IC50(WT)/IC50(DM) [2]: 19.27
IC50 [3]: 23.4 µM
IC50 [4, 6]: 0.0081 µM
IC50 [4, 7]: 0.00812 µM
SI IC50(A549)/IC50(DM) [4]: 2884
CC50 at 72 h [5]: 43 µM
TI, CC50/IC50 (HepG2 cells): 5296

C=CC(=O)Nc1cc(Nc2nccc(C(=O)c3ccc(N4CCN(C)CC4)cc3)n2)c(OC)cc1N(C)CCN(C)C [EGFR_3365_62, N-(2-((2-(dimethylamino)ethyl)(methyl)amino)-4-methoxy-5-((4-(4-(4-methylpiperazin-1-yl)benzoyl)pyrimidin-2-yl)amino)phenyl)acrylamide formate]
Intrinsic clearance in human liver S9 fractions at 10 µM [1]: 3.7 µL/min/mg
IC50 (WT EGFR (Wild-Type EGFR)): 0.127 µM
IC50 [2]: 0.00658 µM
SI, IC50(WT)/IC50(DM) [2]: 19.37
IC50 [3]: 12.3 µM
IC50 [4, 6]: 0.0228 µM
IC50 [4, 7]: 0.0608 µM
SI IC50(A549)/IC50(DM) [4]: 539
CC50 at 72 h [5]: 31.1 µM
TI, CC50/IC50 (HepG2 cells): 512

C=CC(=O)Nc1cc(Nc2nccc(C(=O)c3ccc(N4CCCC4)cc3)n2)c(OC)cc1N(C)CCN(C)C [EGFR_3365_63, N-(2-((2-(dimethylamino)ethyl)(methyl)amino)-4-methoxy-5-((4-(4-(pyrrolidin-1-yl)benzoyl)pyrimidin-2-yl)amino)phenyl)acrylamide]
Intrinsic clearance in human liver S9 fractions at 10 µM [1]: 15.6 µL/min/mg
IC50 (WT EGFR (Wild-Type EGFR)): 0.0229 µM
IC50 [2]: 0.00094 µM
SI, IC50(WT)/IC50(DM) [2]: 24.32
IC50 [3]: 10.8 µM
IC50 [4, 6]: 0.002 µM
IC50 [4, 7]: 0.00579 µM
SI IC50(A549)/IC50(DM) [4]: 5383
CC50 at 72 h [5]: 13 µM
TI, CC50/IC50 (HepG2 cells): 2239

C=CC(=O)Nc1cc(Nc2nccc(C(=O)c3ccc(OCCCC)cc3)n2)c(OC)cc1N(C)CCN(C)C [EGFR_3365_66, N-(5-((4-(4-butoxybenzoyl)pyrimidin-2-yl)amino)-2-((2-(dimethylamino)ethyl)(methyl)amino)-4-methoxyphenyl)acrylamide]
Intrinsic clearance in human liver S9 fractions at 10 µM [1]: 1.3 µL/min/mg
IC50 (WT EGFR (Wild-Type EGFR)): 0.0468 µM
IC50 [2]: 0.00186 µM
SI, IC50(WT)/IC50(DM) [2]: 25.13
IC50 [3]: 4.64 µM
IC50 [4, 6]: 0.0347 µM
IC50 [4, 7]: 0.0347 µM
SI IC50(A549)/IC50(DM) [4]: 134
CC50 at 72 h [5]: 9.64 µM
TI, CC50/IC50 (HepG2 cells): 278

C=CC(=O)Nc1cc(Nc2nccc(C(=O)c3ccc(OCC)cc3OCC)n2)c(OC)cc1N(C)CCN(C)C [EGFR_3365_68, N-(5-((4-(2,4-diethoxybenzoyl)pyrimidin-2-yl)amino)-2-((2-(dimethylamino)ethyl) (methyl)amino)-4-methoxyphenyl)acrylamide]
Intrinsic clearance in human liver S9 fractions at 10 µM [1]: 14.5 µL/min/mg
IC50 (WT EGFR (Wild-Type EGFR)): 0.0939 µM
IC50 [2]: 0.00903 µM
SI, IC50(WT)/IC50(DM) [2]: 10.40
IC50 [3]: 8.14 µM
IC50 [4, 6]: 0.0346 µM
IC50 [4, 7]: 0.0346 µM
SI IC50(A549)/IC50(DM) [4]: 235
CC50 at 72 h [5]: 28.6 µM
TI, CC50/IC50 (HepG2 cells): 825

C=CC(=O)Nc1cc(Nc2nccc(C(=O)c3ccc(OC)cc3OC)n2)c(OC)cc1N(C)CCN(C)C [EGFR_3365_69, N-(5-((4-(2,4-dimethoxybenzoyl)pyrimidin-2-yl)amino)-2-((2-(dimethylamino)ethyl)(methyl)amino)-4-methoxyphenyl)acrylamide]
Intrinsic clearance in human liver S9 fractions at 10 µM [1]: 14.4 µL/min/mg
IC50 (WT EGFR (Wild-Type EGFR)): 0.0236 µM
IC50 [2]: 0.00259 µM
SI, IC50(WT)/IC50(DM) [2]: 9.12
IC50 [3]: > 10 µM
IC50 [4, 6]: 0.0079 µM
IC50 [4, 7]: 0.00793 µM
SI IC50(A549)/IC50(DM) [4]: >1261
CC50 at 72 h [5]: 51.9 µM
TI, CC50/IC50 (HepG2 cells): 6549

C=CC(=O)Nc1cc(Nc2nccc(C(=O)c3ccc(OCCC)cc3OCCC)n2)c(OC)cc1N(C)CCN(C)C [EGFR_3365_70, N-(2-((2-(dimethylamino)ethyl)(methyl)amino)-5-((4-(2,4-dipropoxybenzoyl)pyrimidin-2-yl)amino)-4-methoxyphenyl)acrylamide]
Intrinsic clearance in human liver S9 fractions at 10 µM [1]: 0.7 µL/min/mg
IC50 (WT EGFR (Wild-Type EGFR)): 0.25 µM
IC50 [2]: 0.0147 µM
SI, IC50(WT)/IC50(DM) [2]: 16.96
IC50 [3]: 4.39 µM
IC50 [4, 6]: 0.203 µM
IC50 [4, 7]: 0.203 µM
SI IC50(A549)/IC50(DM) [4]: 22
CC50 at 72 h [5]: 11.5 µM
TI, CC50/IC50 (HepG2 cells): 56

C=CC(=O)Nc1cc(Nc2nccc(C(=O)c3ccc(N(CC)CC)cc3)n2)c(OC)cc1N(C)CCN(C)C [EGFR_3365_72, N-(5-((4-(4-(diethylamino)benzoyl)pyrimidin-2-yl)amino)-2-((2-(dimethylamino)ethyl)(methyl)amino)-4-methoxyphenyl)acrylamide]
Intrinsic clearance in human liver S9 fractions at 10 µM [1]: 20.2 µL/min/mg
IC50 (WT EGFR (Wild-Type EGFR)): 0.0559 µM
IC50 [2]: 0.00371 µM
SI, IC50(WT)/IC50(DM) [2]: 15.09
IC50 [3]: 10.7 µM
IC50 [4, 6]: 0.0115 µM
IC50 [4, 7]: 0.0115 µM
SI IC50(A549)/IC50(DM) [4]: 932
CC50 at 72 h [5]: 16.2 µM
TI, CC50/IC50 (HepG2 cells): 1408

From US20200339544A1 (JOINT STOCK COMPANY "BIOCAD", priority 2017, published 2020)
